How the values were obtained:
Assay in all cases: Radioligand Binding Assay (Ki)
Details in all cases: pH 7.4; 22 °C
[1] = biological target: 5-hydroxytryptamine receptor 1D (Homo sapiens, UniProt P28221)
Procedure: (§1) Competition experiments were performed in the presence radioligand with membrane protein (obtained from cells expressing the receptor) and test compounds. The mixture was incubated at room temperature for 60 min and the reaction stopped by rapid filtration onto a 96-well GF/B filter using a Packard Filtermate harvester. Radioactivity retained on the filters was measured by liquid scintillation in a Packard TopCount. IC50 values for test compounds were determined from nonlinear regression analysis of data collected from ligand binding experiments. The inhibition constant (Ki) was calculated from IC50 value by the Cheng and Prusoff equation.

[2] = biological target: 5-hydroxytryptamine receptor 1B (Homo sapiens, UniProt P28222)
Procedure: as §1

[3] = biological target: 5-hydroxytryptamine receptor 2B (Homo sapiens, UniProt P41595)
Procedure: as §1

[4] = biological target: 5-hydroxytryptamine receptor 7 (Homo sapiens, UniProt P34969)
Procedure: as §1

D(2) dopamine receptor = D(2) dopamine receptor (Homo sapiens, UniProt P14416)
Procedure: as §1

[5] = biological target: T1, 5-hydroxytryptamine receptor 1A (Homo sapiens, UniProt P08908)
T1 sequence (P08908 whole entry): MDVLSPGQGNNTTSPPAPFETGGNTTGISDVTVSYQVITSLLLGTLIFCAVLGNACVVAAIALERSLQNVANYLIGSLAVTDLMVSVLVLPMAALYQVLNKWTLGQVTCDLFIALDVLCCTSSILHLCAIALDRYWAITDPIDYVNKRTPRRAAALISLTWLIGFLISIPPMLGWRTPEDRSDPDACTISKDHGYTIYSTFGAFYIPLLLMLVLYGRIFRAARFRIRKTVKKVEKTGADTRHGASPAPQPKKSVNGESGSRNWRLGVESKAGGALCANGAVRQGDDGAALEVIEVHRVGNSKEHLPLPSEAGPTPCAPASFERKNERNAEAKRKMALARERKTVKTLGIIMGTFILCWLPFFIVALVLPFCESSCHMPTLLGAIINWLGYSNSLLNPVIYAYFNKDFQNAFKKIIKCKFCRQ
Procedure: as §1

[6] = biological target: T2, 5-hydroxytryptamine receptor 2C (Homo sapiens, UniProt P28335)
T2 sequence (P28335 whole entry): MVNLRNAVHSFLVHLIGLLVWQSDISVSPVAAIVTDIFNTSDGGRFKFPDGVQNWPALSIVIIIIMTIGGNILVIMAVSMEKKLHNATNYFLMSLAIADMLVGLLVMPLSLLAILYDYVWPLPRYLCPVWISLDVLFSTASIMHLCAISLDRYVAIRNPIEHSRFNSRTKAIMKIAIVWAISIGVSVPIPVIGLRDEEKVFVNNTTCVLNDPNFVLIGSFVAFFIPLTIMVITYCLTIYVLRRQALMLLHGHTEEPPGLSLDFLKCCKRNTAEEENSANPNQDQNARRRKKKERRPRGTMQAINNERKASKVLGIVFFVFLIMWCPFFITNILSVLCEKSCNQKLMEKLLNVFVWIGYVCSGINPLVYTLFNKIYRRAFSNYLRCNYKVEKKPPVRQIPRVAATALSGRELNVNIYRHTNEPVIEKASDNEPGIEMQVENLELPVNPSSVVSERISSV
Procedure: as §1

Sequence of 5-hydroxytryptamine receptor 2B (P41595 whole entry): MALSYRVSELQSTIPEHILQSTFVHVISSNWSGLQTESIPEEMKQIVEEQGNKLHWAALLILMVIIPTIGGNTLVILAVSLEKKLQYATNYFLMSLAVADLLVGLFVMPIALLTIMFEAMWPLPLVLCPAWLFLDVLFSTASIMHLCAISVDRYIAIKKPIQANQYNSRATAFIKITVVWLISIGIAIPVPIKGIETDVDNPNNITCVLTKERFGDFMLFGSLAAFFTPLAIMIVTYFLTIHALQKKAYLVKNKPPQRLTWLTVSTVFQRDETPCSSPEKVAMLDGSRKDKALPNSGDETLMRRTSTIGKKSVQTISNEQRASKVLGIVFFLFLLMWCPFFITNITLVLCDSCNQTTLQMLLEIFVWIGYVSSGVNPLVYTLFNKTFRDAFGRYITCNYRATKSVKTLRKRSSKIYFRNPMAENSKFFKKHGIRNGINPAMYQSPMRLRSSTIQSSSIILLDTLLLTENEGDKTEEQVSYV
Sequence of 5-hydroxytryptamine receptor 1B (P28222 whole entry): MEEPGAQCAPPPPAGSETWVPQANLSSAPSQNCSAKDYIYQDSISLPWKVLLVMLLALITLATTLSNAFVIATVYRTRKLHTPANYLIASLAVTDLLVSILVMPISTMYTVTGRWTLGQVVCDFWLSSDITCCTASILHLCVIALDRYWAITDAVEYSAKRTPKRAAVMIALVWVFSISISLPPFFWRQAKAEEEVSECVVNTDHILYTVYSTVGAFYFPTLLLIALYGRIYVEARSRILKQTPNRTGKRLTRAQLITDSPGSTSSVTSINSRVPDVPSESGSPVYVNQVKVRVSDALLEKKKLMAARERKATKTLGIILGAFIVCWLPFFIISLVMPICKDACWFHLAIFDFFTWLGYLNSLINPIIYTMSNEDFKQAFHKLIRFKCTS
Sequence of D(2) dopamine receptor (P14416 whole entry): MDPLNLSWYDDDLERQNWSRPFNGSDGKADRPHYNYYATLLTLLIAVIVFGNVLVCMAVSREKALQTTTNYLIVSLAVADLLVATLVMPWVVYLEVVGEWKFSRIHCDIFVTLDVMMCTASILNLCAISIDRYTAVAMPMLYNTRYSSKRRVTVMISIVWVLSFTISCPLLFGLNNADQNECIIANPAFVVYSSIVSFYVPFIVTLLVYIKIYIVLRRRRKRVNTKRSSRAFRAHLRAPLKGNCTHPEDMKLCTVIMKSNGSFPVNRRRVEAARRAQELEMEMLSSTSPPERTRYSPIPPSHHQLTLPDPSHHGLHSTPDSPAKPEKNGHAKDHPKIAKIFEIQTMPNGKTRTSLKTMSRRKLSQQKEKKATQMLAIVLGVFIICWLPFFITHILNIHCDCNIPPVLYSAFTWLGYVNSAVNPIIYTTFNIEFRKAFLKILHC
Sequence of 5-hydroxytryptamine receptor 7 (P34969 whole entry): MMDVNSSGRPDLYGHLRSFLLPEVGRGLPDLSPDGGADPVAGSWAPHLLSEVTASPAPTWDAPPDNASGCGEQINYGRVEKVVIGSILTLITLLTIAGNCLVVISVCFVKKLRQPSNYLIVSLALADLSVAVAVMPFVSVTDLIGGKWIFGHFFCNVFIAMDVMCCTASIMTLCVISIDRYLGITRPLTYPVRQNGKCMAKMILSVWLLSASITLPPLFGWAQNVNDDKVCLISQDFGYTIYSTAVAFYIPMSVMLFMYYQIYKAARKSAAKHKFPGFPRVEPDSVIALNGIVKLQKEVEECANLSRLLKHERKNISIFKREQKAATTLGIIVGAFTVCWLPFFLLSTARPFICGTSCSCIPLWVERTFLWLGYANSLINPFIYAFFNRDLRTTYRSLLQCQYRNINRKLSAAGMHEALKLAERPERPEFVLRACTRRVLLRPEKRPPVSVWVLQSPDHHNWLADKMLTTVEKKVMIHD
Sequence of 5-hydroxytryptamine receptor 1D (P28221 whole entry): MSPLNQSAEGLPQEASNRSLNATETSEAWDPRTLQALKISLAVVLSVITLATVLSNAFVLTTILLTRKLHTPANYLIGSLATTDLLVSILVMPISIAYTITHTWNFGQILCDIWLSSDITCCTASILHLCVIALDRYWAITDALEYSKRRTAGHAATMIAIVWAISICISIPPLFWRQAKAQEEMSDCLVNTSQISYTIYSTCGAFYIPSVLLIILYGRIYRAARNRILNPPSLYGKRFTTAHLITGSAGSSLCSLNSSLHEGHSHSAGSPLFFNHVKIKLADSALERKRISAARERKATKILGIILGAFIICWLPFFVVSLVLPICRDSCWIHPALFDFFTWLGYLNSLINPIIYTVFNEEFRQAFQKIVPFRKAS

Ki [1]: > 2 µM | Ki [2]: > 2 µM | Ki [3]: 0.155 µM | Ki [4]: 5.1 µM | Ki (D(2) dopamine receptor): > 2 µM | Ki [5]: 6.4 µM | Ki [6]: > 2 µM
Compound: NCCC(=O)Nc1ccc2cnn(S(=O)(=O)c3cccc4ccccc34)c2c1 [3-amino-N-[1-(naphthalene-1-sulfonyl)-1H-indazol-6-yl]propanamide]
